Source: patent US9359313B2, “Use of metformin in combination with a glucokinase activator and compositions comprising metformin and a glucokinase activator” (vTv Therapeutics LLC, priority 2010, dated 2016)

Key:
[1] = tested on: diabetic ob/ob mice; experiment: Treatment of diabetic ob/ob mice with UD1 and metformin: post-prandial glucose; assay type: in vivo; conditions: 75 mg/kg UD1, 100 mg/kg Met; for mean post-prandial glucose level / mean glucose level: n=10; for mean glucose level: time 0 hours (baseline)
Procedure: Before treatment, the mice were assigned to four groups based on baseline glucose levels and body weight (n=10 for each group). Each group of mice was dosed with one of the following: (1) a control substance; (2) 75 mg/kg UD1; (3) 100 mg/kg metformin (Met); or (4) 75 mg/kg UD1 and 100 mg/kg metformin (Met). Post-prandial glucose was measured at time points of 1, 3, 5, 7, and 9 hours following dosing.

[2] = Pharmacokinetic evaluation of three oral UD1 dosage forms in male beagle dogs; assay type: in vivo; conditions: 100 mg of UD1, fasted, mean of 3 dogs
Procedure: For all nine dogs, 100 mg of UD1 was administered orally. Each dog was dosed in a fasted state, where food was provided 4 hours following dosing. Blood samples were taken for pharmacokinetic (PK) evaluation at the following time intervals following dosing: 0.5, 1.0, 2.0, 4.0, 6.0, 8.0, 12.0, and 24.0 hours.

Row | AUC0-∞ [2] [ng·h/mL] | Cmax [2] [ng/mL] | SMILES | change in glucose levels relative to control, AUC 0-9 hrs [1] [mg·h/dL] | mean post-prandial glucose level ([1]; 1 hour following dosing) [mg/dL] | mean post-prandial glucose level ([1]; 3 hours following dosing) [mg/dL] | mean post-prandial glucose level ([1]; 5 hours following dosing) [mg/dL] | mean post-prandial glucose level ([1]; 7 hours following dosing) [mg/dL] | mean post-prandial glucose level ([1]; 9 hours following dosing) [mg/dL] | mean glucose level [1] [mg/dL]
1 | – | – | CN(C)C(=N)NC(=N)N [Met, N,N-dimethylimidodicarbonimidic diamide, reference compound] | -39 | 357 | 334 | 459 | 501 | 484 | 389
2 | 15802 | 6985 | CCCO[C@H]1CC[C@H](N(C(=O)Nc2ncc(SCC(=O)O)s2)C2CCCCC2)CC1.CN(C)C(=N)NC(=N)N [Metformin Salt, 1,1-dimethylbiguanide salt of {2-[3-cyclohexyl-3-(trans-4-propoxy-cyclohexyl)-ureido]-thiazol-5-ylsulfanyl}-acetic acid] | – | – | – | – | – | – | –
3 | – | – | CCCO[C@H]1CC[C@H](N(C(=O)Nc2ncc(SCC(=O)O)s2)C2CCCCC2)CC1 [UD1, {2-[3-cyclohexyl-3-(trans-4-propoxy-cyclohexyl)-ureido]-thiazol-5-ylsulfanyl}-acetic acid] | -748 | 321 | 254 | 376 | 382 | 394 | 391
